Laboratory results as given in patent US20140081012A1, “NANOPARTICLE, LIPOSOMES, POLYMERS, AGENTS AND PROTEINS MODIFIED WITH REVERSIBLE LINKERS” (THE UNIVERSITY OF NORTH CAROLINA AT CHAPEL HILL, priority 2011, published 2014).

How the values were obtained:
[1] = Regeneration of tyramine after disulfide cleavage with DTT (GC-MS); format: physicochemical; settings: 50 mM DTT in PBS
Experimental: Two tyramine molecules were reacted with DIC in isopropanol, which completely simulates the cross-linking conditions for protein-based particles (FIG. 26). The commercially available disulfide crosslinker DSP was used as a control in this study. The dimer products were denoted as tyramine-DIC and tyramine-DSP, respectively. Both compounds were treated with 50 mM of dithiothreitol (DTT) in phosphate buffer saline (PBS) to cleave the disulfide bond. […] In addition, ^1H-NMR and high-resolution mass spectrometry confirmed the structure of tyramine recovered after DTT treatment of tyram tyramine-DIC. (SI) Therefore, all the aforementioned results support the successful design of the novel DIC crosslinker.
Tyramine (0.24 g, 1.75 mmol) was added to a solution of DIC (0.12 g, 0.35 mmol) in isopropanol (15 mL). The reaction mixture was stirred for 24 h at 40° C. The mixture was concentrated and purified by column chromatography (EtOAc) to give tyramine-DIC ([…]) as light yellow solid. Tyramine (0.24 g, 1.75 mmol) was added to a solution of DSP (0.14 g, 0.35 mmol) in DMF (4 mL). The reaction mixture was stirred for 24 h at 40° C. […] The supernatants from the solutions were collected and analyzed by gas chromatography-mass spectrometry (Alilent Technologies 5975 series MSD, 7820A GC system) and untreated tyramine was used as standard.

[2] = tested on: anti-BSA antibody (sandwich ELISA); assay: BSA ELISA characterization; format: binding; settings: several concentrations over the sampling range
Experimental: Several concentrations were compared over the sampling range of the assays (FIG. 30). […] ELISA relies upon protein-protein interactions, thus providing insight into the preservation of the protein's binding motifs.
The solution was then dialyzed against water for 2 h to remove GSH. […] Absorbance was measured with a SpectraMax M5 plate reader (Molecular Devices) at 450 nm.

| regeneration of tyramine after cleavage of the disulfide bond [1] | Compound | absorbance in BSA ELISA compared with native albumin [2] |
| --- | --- | --- |
| No peak of tyramine was observed | O=C(CCSSCCC(=O)NCCc1ccc(O)cc1)NCCc1ccc(O)cc1 [tyramine-DSP] |  |
|  | albumin dissolved from the cross-linked particles: BSA released from DIC-cross-linked PRINT BSA particles in PBS with 5 mM glutathione | very similar absorbance |
|  | denatured free protein: heat denatured BSA | significantly less total absorbance |
